Laboratory results published in patent US20100273656A1, “COMPOSITION AND METHOD FOR SELECTIVE HERBICIDE” (priority 2002, published 2010).

Legend:
[1] = tested on: turf bentgrass (Agrostis sp.); assay: Example 11 field test, blackening of bentgrass leaf tips; format: in vivo
Description: The product was diluted 6 ml into 1 L of water solution and applied at rate of 200 ml/m^2, as per label instructions.
This test investigated the effect of FeHEDTA and a mixture of FeEDDS and FeMGDA on daisy (Bellis perennis), dandelion (Taraxacum officinale) and a turf bentgrass (Agrostis sp.). The chelating agents were used at one and a half times the molar amount of iron. […] The commercially prepared FeHEDTA product from the Monterey Chemical Company (CA, USA) was used as a standard. […] The solutions were made from NaEDDS (Octaquest E30, Octel) and NaMGDA (Trilon M liquid, BASF, Germany). Ammonium sulfate was added at a concentration of 1%. Killex (Solaris ON, Canada) was diluted and applied as per label instructions of 6 ml/L applied at 200 ml/m^2.
The daisy (0.25 m^2) and dandelion (0.5 m^2) test plots were in different areas of the bentgrass field. The dandelions were large, averaging 30 cm in diameter. The daisy patches were between 10 and 20 cm in diameter. The plants were sprayed weekly 4 times.

[2] = tested on: chickweed scarlet pimpernel (Anagallis arvensis); assay: Example 12 FeHEDTA field test, chickweed scarlet pimpernel; format: in vivo; conditions: for Survival of Chickweed Plants (%): day 7/day 0
Description: This test evaluated FeHEDTA with 0.15% and 0.2% Fe for controlling the chickweed scarlet pimpernel (Anagallis arvensis) and dandelion (Taraxacum officinale). The solution contained 1.3 times the molar amount of chelating agent as iron. Field areas of well established chickweed and dandelion (0.5 m^2) were sprayed at a rate of 100 ml/m^2.

dandelion = assay: Example 14 field dandelion test of iron chelates and 50:50 mixtures; format: in vivo, Taraxacum officinale; design: Surviving Dandelions (%): concentration or dose not given beside the values
Excerpt: Solutions were made of FeHEDTA (0.2% Fe), FeEDTA (0.2% Fe), FeEDDS (0.4% Fe), and FeMGDA (0.4% Fe). For the combinations, these 4 solutions were mixed together in a 1:1 ratio. The plots (0.25 m^2) were sprayed 3 times at weekly intervals at a rate of 0.1 L/m^2. The plots contained a mixture of dandelion and hard fescue turfgrass.

white clover = assay: Example 17 iron chelates with Killex, white clover; format: in vivo
Description: (§1) Plants were fertilized with an all purpose water-soluble fertilizer mix of 20-20-20 (N-P-K; Plant-Prod®) as needed. All broadleaf weeds were grown individually in a 2¼-inch pot until they were a suitable size for herbicide tests (actual weed size is reported in examples below). Perennial ryegrass was also grown in 2¼-inch pots, however many grass seeds were sown in the pot to simulate a small section of turf. Grass plants were continually trimmed to a height of 4 cm, simulating that of a homeowner's lawn. For field tests, plots ¼ m^2 in size were marked out in areas containing the targeted broadleaf weed species growing in turf grass. Plots were continually mowed to simulate a homeowner's lawn. […] In all of the examples, the amounts of the various herbicide components are identified as a percent on a weight basis.
(§2) Killex® (Scotts Canada, Ltd., Ontario, Canada) is a commonly used selective lawn herbicide and was used as the commercial herbicide for herbicide combinations. The labeled dilution and application rates for Killex® are 6 ml into 1 L of solution (0.6%) applied at 200 ml/m^2.
(§3) All visual plant damage assessments were made using a quantitative rating scale; percent control relative to the untreated check (0=no effect; 100=plant death).
(§4) Materials and Methods: This trial was conducted in the greenhouse. Nine pots of white clover and 10 pots of perennial ryegrass were selected for each treatment. Herbicidal solutions were prepared using deionized water. The treatments were applied using a handheld trigger sprayer at 200 ml/m^2. All treatments were applied once. Phytotoxicity (%) was assessed 4, 7, and 14 days after application (A4, A7, and A14).

broadleaf plantain = assay: Example 19 FeHEDTA with Killex at reduced rates, broadleaf plantain; format: in vivo; conditions: Killex ® 0%, 7 days after application
Description: as §1, §2, §3
as §4, with “Ten broadleaf plantain plants” for “Nine pots of white clover”, “5” for “10”, “Herbicide” for “Herbicidal”, “hand-trigger” for “handheld trigger”, “7” for “4, 7, and 14”, “(A7).” for “(A4, A7, and A14).”

O=C([O-])CN(CCO)CCN(CC(=O)[O-])CC(=O)[O-].[Fe+3] [FeHEDTA]
Blackening of Bentgrass (Agrostis) Leaf Tips (0 to 9) ([1]; day 1): 0 | Blackening of Bentgrass (Agrostis) Leaf Tips (0 to 9) ([1]; day 6): 0 | Blackening of Bentgrass (Agrostis) Leaf Tips (0 to 9) ([1]; day 9): 0 | Blackening of Bentgrass (Agrostis) Leaf Tips (0 to 9) ([1]; day 16): 2 | Blackening of Bentgrass (Agrostis) Leaf Tips (0 to 9) ([1]; day 21): 0.5 0 to 9 | Blackening of Bentgrass (Agrostis) Leaf Tips (0 to 9) ([1]; day 23): 0 | Blackening of Bentgrass (Agrostis) Leaf Tips (0 to 9) ([1]; day 30): 0 | Chickweed Plants (#/0.5 m^2) ([2]; 7 days after spraying, listed as FeHEDTA (0.15% Fe)): 8 #/0.5 m^2 | Chickweed Plants (#/0.5 m^2) ([2]; 7 days after spraying, listed as FeHEDTA (0.20% Fe)): 4 #/0.5 m^2 | numbers of chickweed plants, in words ([2]; Example 12, text): significantly reduced | Chickweed Plants (#/0.5 m^2) ([2]; day 0, listed as FeHEDTA (0.15% Fe)): 15 #/0.5 m^2 | Chickweed Plants (#/0.5 m^2) ([2]; day 0, listed as FeHEDTA (0.20% Fe)): 25 #/0.5 m^2 | Survival of Chickweed Plants (%) ([2]; listed as FeHEDTA (0.15% Fe)): 53% | Survival of Chickweed Plants (%) ([2]; listed as FeHEDTA (0.20% Fe)): 16% | Area Covered by Dandelion (%) (dandelion; day 0): 40% | Dandelion Count (#/0.25 m^2) (dandelion; day 0): 63 #/0.25 m^2 | Dandelion Count (#/0.25 m^2) (dandelion; day 6): 60 #/0.25 m^2 | Surviving Dandelions (%) (dandelion; day 6): 95% | Area Covered by Dandelion (%) (dandelion; day 6, sprayed 3 times at weekly intervals): 20% | Dandelion Necrosis (%) (dandelion; day 11): 95% | Dandelion Count (#/0.25 m^2) (dandelion; day 13): 40 #/0.25 m^2 | Surviving Dandelions (%) (dandelion; day 13): 63% | Area Covered by Dandelion (%) (dandelion; day 15): 8% | Dandelion Necrosis (%) (dandelion; day 18): 97% | Area Covered by Dandelion (%) (dandelion; day 21): 2% | Dandelion Count (#/0.25 m^2) (dandelion; day 21): 26 #/0.25 m^2 | Surviving Dandelions (%) (dandelion; day 21): 41% | Dandelion Necrosis (%) (dandelion; day 33): 97% | Phytotoxicity (%) against white clover (white clover; A4 = 4 days after application, 0=no effect, 100=plant death): 22% | Phytotoxicity (%) against white clover (white clover; A7 = 7 days after application): 19% | Phytotoxicity (%) against white clover (white clover; A14 = 14 days after application): 15% | A7 Phytotoxicity (%) against broadleaf plantain (broadleaf plantain; listed as FeHEDTA 0.1% Fe): 9% | A7 Phytotoxicity (%) against broadleaf plantain (broadleaf plantain; listed as FeHEDTA 0.2% Fe): 10% | A7 Phytotoxicity (%) against broadleaf plantain (broadleaf plantain; listed as FeHEDTA 0.4% Fe): 22%
